In patent US6414005B1, “Heterocyclic compounds having nos inhibitory activities” (Chugai Seiyaku Kabushiki Kaisha, priority 1997, dated 2002):
Structures can show the parent of a compound that is named as a salt. Where two headings read alike, the source gives them in different places.

Legend:
[1] = molecular target: T1, eNOS (type 3) (Bos taurus, UniProt P29473); experiment: NOS activity, conversion of L-[3H]arginine to L-[3H]citrulline, crude enzyme of eNOS; type: biochemical, cow; conditions: for IC50: crude enzyme from cow pulmonary arterial endothelium cells (CPAE), 100 nM L-[3H]arginine, 37° C., 10 min; for Ratio of IC50 eNOS/inos: index of selectivity
T1 construct: Cow pulmonary arterial endothelium cells (CPAE) were cultured in a MEM medium containing 20% FBS; endogenous in cells; host or cells: CPAE (cow pulmonary arterial endothelium cells), detergent extract, 100,000 x g supernatant

[2] = molecular target: iNOS (type 2) (Rattus norvegicus, UniProt Q06518); experiment: NOS activity, conversion of L-[3H]arginine to L-[3H]citrulline, iNOS; type: biochemical; conditions: 100 nM L-[3H]arginine, 37° C., 10 min
Protocol: Crude enzymes of the respective NOS isoforms were prepared by the following procedures (Nagafuji et al., Neuroreport 6, 1541-1545, 1995).
The method of measuring NOS activity was basically the same as already reported by the present inventors and consisted of determining quantitatively the conversion of a substrate L-[^3H]arginine to a reaction product L-[^3H] citrulline (Nagafuji et al., in Brain Edema IX (Ito et al, eds.) 60, pp. 285-288, 1994; Nagafuji et al., Neuroreport 6, 1541-1545, 1995)
The reaction solution consisted of 100 nM L-[^3H] arginine, a prepared crude NOS enzyme sample (10-30 μg/ml protein), 1.25 mM CaCl2, 1 mM EDTA, 10 μg/ml calmodulin, 1 mM NADPH, 100 μM tetrahydrobiopterine, 10 μM FAD, 10 μM FMN and 50 mM Tris-HCl (pH 7.4), to which one of the compounds of the invention or one of the control compounds was added.
(§1) The reaction was started by addition of L-[^3H] arginine. After incubation at 37° C. for 10 min, the reaction was terminated by addition of 2 ml of 50 mM Tris-HCl (pH 5.5) containing 1 mM EDTA and placing the mixture on ice. The reaction solution was passed through a cation-exchange resin column (Dowex AG50WX-8, Na^+ form, 3.2 ml) to separate the reaction product L-[^3H] citrulline from the unreacted residual substrate L-[^3H] arginine. The eluate was combined with another eluate resulting from the passage of a given amount of distilled water through the column and put into a minivial for recovery of L-[^3H] citrulline. Thereafter, a scintillation fluid was added and the contained radioactivity was measured with a liquid scintillation counter to determine the amount of L-[^3H] citrulline.

[3] = molecular target: T2, nNOS (type 1) (Rattus norvegicus, UniProt P29476); experiment: NOS activity, conversion of L-[3H]arginine to L-[3H]citrulline, crude enzyme of nNOS; type: biochemical; conditions: for Ratio of IC50 eNOS/nNOS / Ratio of IC50 iNOS/nNOS: index of selectivity
T2 construct: from tissue; host or cells: rat cerebral cortex, 100,000 x g supernatant (cytosol)
Protocol: The crude enzyme of nNOS was prepared by the following procedure. Normal untreated male Sprague Dawley (SD) rats (body weight, 300-400 g) were decapitated; the whole brain was immediately taken out from each animal and the cerebral cortex was separated on ice. Then, 5 volumes of 50 mM Tris-HCl containing 1 mM DTT (pH 7.4) was added and the mixture was homogenized for 3 min and centrifuged at 1,000×g for 10 min. The resulting supernatant was further centrifuged at 100,000×g for 60 min and a soluble cytosolic fraction of the finally obtained supernatant was used as the crude enzyme of nNOS.
as §1
The activity of nNOS or eNOS was determined by subtracting the activity detected in the absence of CaCl2 and calmodulin from the activity detected in the presence of CaCl2 and calmodulin. The protein concentration of each crude enzyme sample was determined with a micro-assay kit of Bio Rad Co. Each experiment was conducted in a duplicate.

[4] = crude enzyme from rat cerebral cortex, soluble cytosolic fraction, 100 nM L-[3H]arginine, 37° C., 10 min, read-out: IC50 (nM) nNOS (type 1)

T1 sequence (P29473 2-1205): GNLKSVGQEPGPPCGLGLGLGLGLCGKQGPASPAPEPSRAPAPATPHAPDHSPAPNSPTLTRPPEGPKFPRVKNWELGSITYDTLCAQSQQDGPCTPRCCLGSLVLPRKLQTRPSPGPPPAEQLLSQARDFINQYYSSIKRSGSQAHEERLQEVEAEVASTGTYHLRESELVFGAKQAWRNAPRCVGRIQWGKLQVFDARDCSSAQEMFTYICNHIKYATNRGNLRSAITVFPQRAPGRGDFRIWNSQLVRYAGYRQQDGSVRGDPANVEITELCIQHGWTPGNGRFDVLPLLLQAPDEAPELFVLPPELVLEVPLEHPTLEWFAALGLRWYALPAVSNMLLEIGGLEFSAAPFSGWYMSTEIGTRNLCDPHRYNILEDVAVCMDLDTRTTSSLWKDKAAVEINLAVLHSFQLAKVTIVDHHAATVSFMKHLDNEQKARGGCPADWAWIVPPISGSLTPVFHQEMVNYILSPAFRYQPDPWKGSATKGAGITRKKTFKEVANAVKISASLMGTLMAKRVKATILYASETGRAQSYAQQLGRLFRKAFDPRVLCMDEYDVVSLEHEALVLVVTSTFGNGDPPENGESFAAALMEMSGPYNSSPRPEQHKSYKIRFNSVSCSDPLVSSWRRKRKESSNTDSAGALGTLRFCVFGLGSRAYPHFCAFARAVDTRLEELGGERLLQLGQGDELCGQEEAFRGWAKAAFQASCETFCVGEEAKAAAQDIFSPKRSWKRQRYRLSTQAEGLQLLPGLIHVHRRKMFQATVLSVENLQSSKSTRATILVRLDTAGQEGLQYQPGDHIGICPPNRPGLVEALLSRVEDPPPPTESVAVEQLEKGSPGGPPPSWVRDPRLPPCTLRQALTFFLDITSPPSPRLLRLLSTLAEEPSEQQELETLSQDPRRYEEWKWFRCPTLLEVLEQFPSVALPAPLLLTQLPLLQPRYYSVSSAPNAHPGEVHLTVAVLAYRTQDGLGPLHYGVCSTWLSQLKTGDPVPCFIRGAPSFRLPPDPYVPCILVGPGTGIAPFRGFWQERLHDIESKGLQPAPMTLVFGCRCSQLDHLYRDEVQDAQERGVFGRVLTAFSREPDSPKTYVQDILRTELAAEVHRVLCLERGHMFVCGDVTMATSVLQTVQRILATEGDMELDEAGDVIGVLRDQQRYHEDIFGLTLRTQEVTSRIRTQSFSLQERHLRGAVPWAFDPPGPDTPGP
Sequence of iNOS (type 2) (Q06518 whole entry, canonical isoform): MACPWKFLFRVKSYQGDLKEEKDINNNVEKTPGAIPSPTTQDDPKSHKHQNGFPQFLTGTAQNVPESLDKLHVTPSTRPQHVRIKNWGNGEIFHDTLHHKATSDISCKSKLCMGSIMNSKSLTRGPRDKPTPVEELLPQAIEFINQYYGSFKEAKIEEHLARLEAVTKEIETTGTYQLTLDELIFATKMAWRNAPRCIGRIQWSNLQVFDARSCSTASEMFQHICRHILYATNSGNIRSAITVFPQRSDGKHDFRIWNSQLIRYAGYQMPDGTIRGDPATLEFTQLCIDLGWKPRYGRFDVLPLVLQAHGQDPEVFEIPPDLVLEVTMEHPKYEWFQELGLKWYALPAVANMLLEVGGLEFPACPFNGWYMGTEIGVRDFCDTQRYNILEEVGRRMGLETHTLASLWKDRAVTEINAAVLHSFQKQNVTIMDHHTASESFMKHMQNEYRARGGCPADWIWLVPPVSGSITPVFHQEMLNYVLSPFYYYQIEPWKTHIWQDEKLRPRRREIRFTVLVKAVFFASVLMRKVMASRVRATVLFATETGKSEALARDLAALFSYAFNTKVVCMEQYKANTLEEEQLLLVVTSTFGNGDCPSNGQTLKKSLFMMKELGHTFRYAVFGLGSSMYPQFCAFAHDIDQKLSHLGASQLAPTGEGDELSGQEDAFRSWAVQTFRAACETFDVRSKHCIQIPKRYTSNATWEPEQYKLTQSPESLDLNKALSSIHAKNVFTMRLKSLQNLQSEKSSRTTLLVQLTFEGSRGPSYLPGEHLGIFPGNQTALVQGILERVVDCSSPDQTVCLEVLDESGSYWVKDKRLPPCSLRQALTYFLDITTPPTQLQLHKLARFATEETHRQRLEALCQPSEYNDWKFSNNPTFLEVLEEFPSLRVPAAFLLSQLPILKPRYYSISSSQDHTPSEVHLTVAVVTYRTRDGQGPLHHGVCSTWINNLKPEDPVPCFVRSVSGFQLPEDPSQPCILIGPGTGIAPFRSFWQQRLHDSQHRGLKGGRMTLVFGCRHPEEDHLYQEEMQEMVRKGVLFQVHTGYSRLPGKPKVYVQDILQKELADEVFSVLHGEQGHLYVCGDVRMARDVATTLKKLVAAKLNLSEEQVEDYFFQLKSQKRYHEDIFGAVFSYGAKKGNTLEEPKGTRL

| Structure (SMILES) | IC50 [1] | Ratio of IC50 eNOS/inos [1] | IC50 [2] | IC50 [3, 4] | Ratio of IC50 eNOS/nNOS [3] | Ratio of IC50 iNOS/nNOS [3] | nNOS inhibiting activity compared with L-MIN ([3]; comparison drawn from Table 2) | selectivity for nNOS inhibition over eNOS compared with L-EIN ([3]; comparison drawn from Table 2) | IC50 [3] |
| --- | --- | --- | --- | --- | --- | --- | --- | --- | --- |
| N=C(NCCC[C@H](N)C(=O)O)NC1CC1 [L-CPA, N^G-cyclopropyl-L-arginine] | 1540 nM | – | 7150 nM | – | – | – | – | – | – |
| CCSC(=N)NCCC[C@H](N)C(=O)O [L-EIN, S-ethyl-L-thiocitrulline] | 732 nM | – | 6760 nM | – | – | – | – | – | 8.4 nM |
| CSC(=N)NCCC[C@H](N)C(=O)O [L-MIN, S-methyl-L-thiocitrulline, reference compound] | 35.8 nM | 0.145 | 248 nM | – | 6.28 | 43.3 | – | – | 5.7 nM |
| N=C(NCCC[C@H](N)C(=O)O)N[N+](=O)[O-] [L-NA, N^G-nitro-L-arginine] | – | – | 3460 nM | – | – | – | – | – | – |
| COC(=O)[C@@H](N)CCCNC(=N)N[N+](=O)[O-] [L-NAME, N^G-nitro-L-arginine methyl ester, reference compound] | 670 nM | – | 13500 nM | – | – | – | – | – | – |

The next lines start with results.

| IC50 [1] | Ratio of IC50 eNOS/inos [1] | IC50 [2] | IC50 [3, 4] | Ratio of IC50 eNOS/nNOS [3] | Ratio of IC50 iNOS/nNOS [3] | Structure (SMILES) | nNOS inhibiting activity compared with L-MIN ([3]; comparison drawn from Table 2) | selectivity for nNOS inhibition over eNOS compared with L-EIN ([3]; comparison drawn from Table 2) | IC50 [3] |
| --- | --- | --- | --- | --- | --- | --- | --- | --- | --- |
| 1920 nM | 0.243 | 7930 nM | 3.7 nM | 515 | 2120 | CCSC(=N)Nc1ccc(-n2cccc2)c(CN)c1 [Example 1, N-(3-aminomethyl-4-(pyrrol-1-yl)phenyl)-S-ethylisothiourea dihydrochloride] | more potent nNOS inhibiting activity than L-MIN | higher selectivity for nNOS inhibition over eNOS than L-EIN | – |
| 5130 nM | 0.250 | 20500 nM | 6.3 nM | 816 | 3260 | CCSC(=N)Nc1ccc(-n2cccn2)c(CN)c1 [Example 2, N-(3-aminomethyl-4-(pyrazol-1-yl)phenyl)-S-ethylisothiourea dihydrochloride] | – | higher selectivity for nNOS inhibition over eNOS than L-EIN | – |
| 21100 nM | – | – | 22.4 nM | 943 | – | CCSC(=N)Nc1ccc(-n2cccn2)c(CN)c1C [Example 7, N-(3-aminomethyl-2-methyl-4-(pyrazol-1-yl)phenyl)-S-ethylisothiourea dihydrochloride] | – | higher selectivity for nNOS inhibition over eNOS than L-EIN | – |
